# Data from BindingDB's records for doi:10.1021/jm00349a003 (1982).
# Biological target: Dihydrofolate reductase (Lacticaseibacillus casei, UniProt P00381)
# Assay: Inhibitory activity against dihydrofolate reductase (DHFR) from Lactobacillus casei (expressed as log 1/Kiapp)
# Dihydrofolate reductase, sequence (P00381 whole entry): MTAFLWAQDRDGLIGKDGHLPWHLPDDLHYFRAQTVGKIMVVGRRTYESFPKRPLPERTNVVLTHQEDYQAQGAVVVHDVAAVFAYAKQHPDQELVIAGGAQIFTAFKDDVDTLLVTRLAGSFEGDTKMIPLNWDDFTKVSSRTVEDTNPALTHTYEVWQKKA
row,Ki,SMILES
1,4170 nM,Nc1ncc(Cc2cccc(F)c2)c(N)n1
2,4370 nM,"CCCCCCCOc1ccc(Cc2cnc(N)nc2N)cc1 [5-(4-Heptyloxy-benzyl)-pyrimidine-2,4-diamine]"
3,759 nM,COCCOc1cccc(Cc2cnc(N)nc2N)c1
4,120 nM,COc1ccc(Cc2cnc(N)nc2N)cc1OC [Diaveridine]
5,1440 nM,Nc1ncc(Cc2ccc(O)c(O)c2)c(N)n1
6,589 nM,Nc1ncc(Cc2cccc(Br)c2)c(N)n1
7,676 nM,CN(C)c1ccc(Cc2cnc(N)nc2N)cc1
8,1860 nM,Nc1ncc(Cc2cc(CO)cc(CO)c2)c(N)n1
9,3390 nM,Nc1ccc(Cc2cnc(N)nc2N)cc1
10,501 nM,Nc1ncc(Cc2ccc(OC(F)(F)F)cc2)c(N)n1
11,1510 nM,"Nc1ncc(Cc2cccc(O)c2)c(N)n1 [3-(2,4-Diamino-pyrimidin-5-ylmethyl)-phenol]"
12,2140 nM,Nc1ncc(Cc2ccc(F)cc2)c(N)n1
13,1860 nM,CCCCCCOc1ccc(Cc2cnc(N)nc2N)cc1
14,214 nM,Nc1ncc(Cc2cccc(I)c2)c(N)n1
15,6310 nM,Nc1ncc(Cc2ccccc2)c(N)n1
16,617 nM,Nc1ncc(Cc2ccc(Br)cc2)c(N)n1
17,1200 nM,CS(=O)(=O)Oc1cccc(Cc2cnc(N)nc2N)c1
18,1000 nM,Nc1ncc(Cc2ccc([N+](=O)[O-])cc2)c(N)n1

row,Ki,SMILES
1,2140 nM,Nc1ncc(Cc2cccc(CO)c2)c(N)n1
2,3240 nM,CCCCOCc1cccc(Cc2cnc(N)nc2N)c1
3,646 nM,Nc1ncc(Cc2ccc(Cl)cc2)c(N)n1
4,417000 nM,Nc1ncc(Cc2cc(O)cc(O)c2)c(N)n1
5,550 nM,"COCCOc1c(OC)cc(Cc2cnc(N)nc2N)cc1OC [5-[3,5-Dimethoxy-4-(2-methoxy-ethoxy)-benzyl]-pyrimidine-2,4-diamine]"
6,309 nM,COCCOc1ccc(Cc2cnc(N)nc2N)cc1OCCOC
7,891 nM,CC(=O)Nc1ccc(Cc2cnc(N)nc2N)cc1
8,1480 nM,Cc1ccc(Cc2cnc(N)nc2N)cc1
9,50 nM,COc1ccc(Cc2cnc(N)nc2N)cc1C(F)(F)F
10,427 nM,CCCCOc1ccc(Cc2cnc(N)nc2N)cc1
11,1260 nM,Nc1ncc(Cc2cccc(Cl)c2)c(N)n1
12,1100 nM,NC(=O)COc1cccc(Cc2cnc(N)nc2N)c1
13,692 nM,Nc1ncc(Cc2cccc(C(F)(F)F)c2)c(N)n1
14,2290 nM,COCc1cccc(Cc2cnc(N)nc2N)c1
15,891 nM,COCCOc1ccc(Cc2cnc(N)nc2N)cc1
16,1000 nM,CC(=O)Nc1ccc(Cc2cnc(N)nc2N)cc1[N+](=O)[O-]
17,1660 nM,Cc1cccc(Cc2cnc(N)nc2N)c1
